From US12492181B2, “Gem-disubstituted piperidine melanocortin subtype-2 receptor (MC2R) antagonists and uses thereof” (Crinetics Pharmaceuticals, Inc., priority 2019, dated 2025) come the findings set out here.

pKi: −log10 of the molar value. A value given as a limit tells only on which side of the number the result lay.

T1 sequence (Q01718 whole entry): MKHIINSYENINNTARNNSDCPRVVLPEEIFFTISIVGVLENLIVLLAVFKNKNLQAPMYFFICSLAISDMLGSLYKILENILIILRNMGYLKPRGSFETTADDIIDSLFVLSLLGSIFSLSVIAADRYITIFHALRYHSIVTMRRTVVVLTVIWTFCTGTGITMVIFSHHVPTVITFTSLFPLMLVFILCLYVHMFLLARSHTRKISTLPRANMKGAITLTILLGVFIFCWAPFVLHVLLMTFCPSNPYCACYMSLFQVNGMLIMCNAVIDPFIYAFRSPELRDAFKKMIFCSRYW
T1 sequence (Q8TCY5 whole entry partner): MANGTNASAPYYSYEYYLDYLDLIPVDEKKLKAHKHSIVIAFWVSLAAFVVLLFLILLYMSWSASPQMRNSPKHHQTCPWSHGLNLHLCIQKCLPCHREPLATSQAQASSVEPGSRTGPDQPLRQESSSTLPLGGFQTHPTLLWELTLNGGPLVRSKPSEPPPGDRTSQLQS

The experiment has as its target T1, hMC2 receptor (crude hMC2R membranes from CRE-bla-CHO-K1 cells stably expressing hMC2 receptor and hMRAP accessory protein) (Homo sapiens, UniProt Q01718).
T1 construct: crude membrane fractions
The experiment is described as follows: hMC2 membrane binding assay ([125I]ACTH (1-39) Tyr23, SPA). The conditions noted are these: displacement of 0.2 nM [125I]ACTH (1-39) Tyr23 from hMC2R membranes, 1.5 hours at room temperature; read-out: MC2R binding potency. An outline of the steps: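 Crude membranes from CRE-bla-CHO-K1 cells stably co-expressing hMC2R and hMRAP, premixed with WGA PVT SPA beads in pH 7.4 HEPES buffer (5 mM MgCl2, 1 mM CaCl2, 0.20% BSA, protease inhibitors). Compounds compete with [125I]ACTH(1-39) Tyr23, read by scintillation. Ki from non-linear regression.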
On to `Cc1sccc1-c1ccc(C2(C(=O)N[C@@H]3CCN(C)C3)CCN(c3ccc(C(F)(F)F)cc3C#N)CC2)cn1` [Compound 1-112, 1-[2-cyano-4-(trifluoromethyl)phenyl]-N-[(3R)-1-methylpyrrolidin-3-yl]-4-[6-(2-methylthiophen-3-yl)pyridin-3-yl]piperidine-4-carboxamide], for which the pKi is above 8.00. For `CCOc1ncccc1-c1ccc(C2(C(=O)NCC3CN(C)C3)CCN(c3ccc(C(F)(F)F)cc3C#N)CC2)cn1` [Compound 1-18, 1-[2-cyano-4-(trifluoromethyl)phenyl]-4-{2′-ethoxy-[2,3′-bipyridin]-5-yl}-N-[(1-methylazetidin-3-yl)methyl]piperidine-4-carboxamide], the pKi was above 8.00. The result for `CCOc1ncccc1-c1ccc(C2(NC(=O)N3CC[C@H](NC)C3)CCN(c3ccc(C(F)(F)F)cc3C#N)CC2)cn1` [Compound 2-24, (3S)—N-{1-[2-cyano-4-(trifluoromethyl)phenyl]-4-{2′-ethoxy-[2,3′-bipyridin]-5-yl}piperidin-4-yl}-3-(methylamino)pyrrolidine-1-carboxamide] reads above 8.00; that for `CNCCNC(=O)C1(c2cnc(-c3ccccc3OC)c(F)c2)CCN(c2ccc(C(F)(F)F)cc2Cl)CC1` [Compound 1-294, 1-[2-chloro-4-(trifluoromethyl)phenyl]-4-[5-fluoro-6-(2-methoxyphenyl)pyridin-3-yl]-N-[2-(methylamino)ethyl]piperidine-4-carboxamide], 7.00 to 8.00. Regarding `CCOc1ncccc1-c1ccc(C2(C(=O)NC[C@@H](CO)NC)CCN(c3ccc(C(F)(F)F)cc3C#N)CC2)cn1` [Compound 1-47, 1-[2-cyano-4-(trifluoromethyl)phenyl]-4-{2′-ethoxy-[2,3′-bipyridin]-5-yl}-N-[(2S)-3-hydroxy-2-(methylamino)propyl]piperidine-4-carboxamide], the pKi is above 8.00. As to `CCOc1ncccc1-c1ccc(C2(C(=O)N[C@@H]3CCN(C)C3)CCN(c3c(Cl)cc(C(F)(F)F)cc3C#N)CC2)cc1` [Compound 1-29, 1-[2-chloro-6-cyano-4-(trifluoromethyl)phenyl]-4-[4-(2-ethoxypyridin-3-yl)phenyl]-N-[(3R)-1-methylpyrrolidin-3-yl]piperidine-4-carboxamide], the pKi was 7.00 to 8.00. Turning to `CN1C[C@@H](F)C[C@H]1CNC(=O)C1(c2ccc(-c3cccn3C)nc2)CCN(c2ccc(C(F)(F)F)cc2C#N)CC1` [Compound 1-277, 1-[2-cyano-4-(trifluoromethyl)phenyl]-N-{[(2S,4S)-4-fluoro-1-methylpyrrolidin-2-yl]methyl}-4-[6-(1-methyl-1H-pyrrol-2-yl)pyridin-3-yl]piperidine-4-carboxamide], the pKi is above 8.00. Turning to `CCOc1ncccc1-c1ccc(C2(C(=O)N[C@H]3CCN(C)C3)CCN(c3ccc(C(F)(F)F)cn3)CC2)cn1` [Compound 1-35, 4-{2′-ethoxy-[2,3′-bipyridin]-5-yl}-N-[(3S)-1-methylpyrrolidin-3-yl]-1-[5-(trifluoromethyl)pyridin-2-yl]piperidine-4-carboxamide], the pKi was above 8.00. On to `CN1CC[C@H](NC(=O)C2(c3ccc(-c4cccn4C)nn3)CCN(c3ccc(Cl)cc3C#N)CC2)C1` [Compound 1-170, 1-(4-chloro-2-cyanophenyl)-4-[6-(1-methyl-1H-pyrrol-2-yl)pyridazin-3-yl]-N-[(3S)-1-methylpyrrolidin-3-yl]piperidine-4-carboxamide], for which the pKi is above 8.00.

As to `CCOc1ncccc1-c1ccc(C2(NC(=O)N3CC(NC)C3)CCN(c3ccc(C(F)(F)F)cc3C#N)CC2)cn1` [Compound 2-23, N-{1-[2-cyano-4-(trifluoromethyl)phenyl]-4-{2′-ethoxy-[2,3′-bipyridin]-5-yl}piperidin-4-yl}-3-(methylamino)azetidine-1-carboxamide], the pKi was above 8.00.

Turning to `CCOc1ncccc1-c1ccc(C2(C(=O)NC[C@H](C)N(C)C)CCN(c3ccc(C(F)(F)F)cc3C#N)CC2)cn1` [Compound 1-332, 1-[2-cyano-4-(trifluoromethyl)phenyl]-N-[(2S)-2-(dimethylamino)propyl]-4-{2′-ethoxy-[2,3′-bipyridin]-5-yl}piperidine-4-carboxamide], the pKi was above 8.00. `COc1ccc(C)cc1-c1ccc(C2(C(=O)N[C@@H]3CCN(C)C3)CCN(c3ccc(C(F)(F)F)cc3C#N)CC2)cn1` [Compound 1-130, 1-[2-cyano-4-(trifluoromethyl)phenyl]-4-[6-(2-methoxy-5-methylphenyl)pyridin-3-yl]-N-[(3R)-1-methylpyrrolidin-3-yl]piperidine-4-carboxamide]: the pKi was above 8.00. As for `COc1c(F)cccc1-c1ccc(C2(C(=O)N[C@@H]3CCN(C)C3)CCN(c3ccc(C(F)(F)F)cc3C#N)CC2)cn1` [Compound 1-82, 1-[2-cyano-4-(trifluoromethyl)phenyl]-4-[6-(3-fluoro-2-methoxyphenyl)pyridin-3-yl]-N-[(3R)-1-methylpyrrolidin-3-yl]piperidine-4-carboxamide], the pKi is above 8.00. Take `CN1CC[C@@H](NC(=O)C2(c3ccc(-c4cccc5c4OC(F)(F)O5)nc3)CCN(c3ccc(C(F)(F)F)cc3C#N)CC2)C1` [Compound 1-67, 1-[2-cyano-4-(trifluoromethyl)phenyl]-4-[6-(2,2-difluoro-2H-1,3-benzodioxol-4-yl)pyridin-3-yl]-N-[(3R)-1-methylpyrrolidin-3-yl]piperidine-4-carboxamide]: the pKi was 7.00 to 8.00. The result for `CCOc1ncccc1-c1ccc(C2(C(=O)N[C@H]3CCN(C)C3)CCN(c3ccc(OC(F)(F)F)cc3C#N)CC2)cn1` [Compound 1-39, 1-[2-cyano-4-(trifluoromethoxy)phenyl]-4-{2′-ethoxy-[2,3′-bipyridin]-5-yl}-N-[(3S)-1-methylpyrrolidin-3-yl]piperidine-4-carboxamide] reads above 8.00; that for `CN1CC[C@@H](NC(=O)C2(c3ccc(-c4ccccc4CO)nc3)CCN(c3ccc(C(F)(F)F)cc3C#N)CC2)C1` [Compound 1-55, 1-[2-cyano-4-(trifluoromethyl)phenyl]-4-{6-[2-(hydroxymethyl)phenyl]pyridin-3-yl}-N-[(3R)-1-methylpyrrolidin-3-yl]piperidine-4-carboxamide], above 8.00. Regarding `CCOc1ncccc1-c1ccc(C2(C(=O)NC[C@H](CO)N(C)C)CCN(c3ccc(C(F)(F)F)cc3C#N)CC2)cn1` [Compound 1-45, 1-[2-cyano-4-(trifluoromethyl)phenyl]-N-[(2R)-2-(dimethylamino)-3-hydroxypropyl]-4-{2′-ethoxy-[2,3′-bipyridin]-5-yl}piperidine-4-carboxamide], the pKi was above 8.00. The same measure for `CCOc1ncccc1-c1ccc(C2(C(=O)NCCN(C)C)CCN(c3ccc(C(F)(F)F)cc3Cl)CC2)cn1` [Compound 1-224, 1-[2-chloro-4-(trifluoromethyl)phenyl]-N-[2-(dimethylamino)ethyl]-4-{2′-ethoxy-[2,3′-bipyridin]-5-yl}piperidine-4-carboxamide]: above 8.00; for `CN(C)CCNC(=O)C1(c2ccc(-c3cccn3C)nc2)CCN(c2ccc(C(F)(F)F)cc2C#N)CC1` [Compound 1-216, 1-[2-cyano-4-(trifluoromethyl)phenyl]-N-[2-(dimethylamino)ethyl]-4-[6-(1-methyl-1H-pyrrol-2-yl)pyridin-3-yl]piperidine-4-carboxamide]: above 8.00.
